Data from patent US6888015B2, “Sphingolipid synthesis inhibitor” (Japan Science and Technology Agency, priority 2001, dated 2005).

Tests used:
[1] = tested on: de novo synthesis of SM in CHO cells; test: Metabolic labeling of lipids with [14C]serine in CHO cells; format: cell-based, Chinese hamster; settings: for inhibition of de novo SM synthesis (stereoisomers): [14C]serine labeling (FIG. 6B)
Method: (§1) CHO cells are cultured in Ham's F12 medium supplemented with 10% newborn bovine serum (NBS), penicillin G (100 unit/mL) and streptomycin sulfate (100 μg/mL) at the temperature of 33° C. and 5% CO2 atmosphere. In the case of HeLa cells, Dulbecco's minimum essential medium is used as a base medium instead of Ham's F12 medium.
Further, Nutridoma medium (Ham's F12 medium containing 1% Nutridoma-SP, product of Roche Molecular Biochemicals, and 25 μg/mL of gentamicin) is used as a serum-free medium. In the case when the medium is supplemented by DMSO or drugs dissolved in DMSO, the concentration of DMSO in culture medium is adjusted to be 0.01%.
CHO cells are seeded at the density of 1.0×10^6 cell in 5 mL of F12 medium containing 10% NBS, by per 60-mm dish, and cultured at 33° C. overnight. Then, the medium is changed to 1.5 mL of Nutridoma medium if necessary, various drugs are added and incubated at 4° C. for 15 minutes. Then, after addition of [^14C] serine (0.75 μCi) or [^14 C] choline (1.0 μCi) to the medium, cells were incubated at 33° C. for various periods of time.
Cells are washed twice with 2 mL of cold phosphate-buffered saline (PBS), and lysed with 900 μL of 0.1% sodium dodecyl sulfate (SDS). Then, 800 μL and 20 μL of lysate are used for lipid extraction and determination of protein concentration, respectively.
For the analysis of lipids labeled with [C^14C] serine, lipids were separated by TLC with a solvent consisting of methylacetate/n-propanol/chloroform/methanol/0.25%KCl (25:25:25:10:9, volume ratio) as a developing solvent.
Radioactive lipid separated on the TLC plates are detected with image analyzer depicted above. After the collection of gels from TLC plates by scraping, the radioactivity of each lipid is determined by liquid scintillation counting and normalized to the protein concentration of cells.

[2] = tested on: synthesis of SM in HeLa cells; test: De novo synthesis of SM in HeLa cells; format: cell-based; settings: FIG. 6D
Method: as §1

[3] = tested on: protein trafficking from the ER to the Golgi apparatus; test: Glycoprotein (PLAP-HA) transport from the ER to the Golgi apparatus; format: cell-based, Chinese hamster; settings: 2.5 μM; CHO-K1 transformant expressing PLAP-HA (FIG. 7)

| Structure (SMILES) | inhibition of de novo SM synthesis (stereoisomers) [1] | formation of [14C]SM ([1]; 2.5 μM drug, [14C]serine labeling, CHO cells (FIG. 1B)) | synthesis of SM in HeLa cells [2] | inhibitory activity on the Cer-to-SM conversion among four stereoisomers ([1]; FIG. 6B, 6C) | maturation rate of newly synthesized PLAP-HA to an EndoH-resistant form [3] |
| --- | --- | --- | --- | --- | --- |
| CCCCCCCCCCCC(=O)N[C@H](CO)C[C@H](O)c1ccccc1 [(1S, 3S)-HPA-12] | moderately | – | – | – | – |
| CCCCCCCCCCCCCCCC(=O)NC(CO)CC(O)c1ccccc1 (stereo not drawn) [HPA-16] | – | less than that of HPA-12 | – | – | – |
| CCCCCCCCCCCC(=O)N[C@@H](CO)C[C@@H](O)c1ccccc1 [(1R, 3R)-HPA-12] | strongly | – | inhibits | strongest inhibitory activity | not affected |
